Columns and labels:
[1] = biological target: T1, Disintegrin and metalloproteinase domain-containing protein 17 (Homo sapiens, UniProt P78536); assay: Inhibition of TNF(tumor necrosis factor) in human blood; assay type: functional
Neutrophil collagenase = Neutrophil collagenase (Homo sapiens, UniProt P22894); assay: Inhibition of MMP-8 (matrix metalloprotease-8)
Interstitial collagenase = biological target: T2, Interstitial collagenase (Homo sapiens, UniProt P03956); assay: Inhibitory activity against MMP-1 (Matrix metalloprotease-1)
T2 sequence (P03956 whole entry): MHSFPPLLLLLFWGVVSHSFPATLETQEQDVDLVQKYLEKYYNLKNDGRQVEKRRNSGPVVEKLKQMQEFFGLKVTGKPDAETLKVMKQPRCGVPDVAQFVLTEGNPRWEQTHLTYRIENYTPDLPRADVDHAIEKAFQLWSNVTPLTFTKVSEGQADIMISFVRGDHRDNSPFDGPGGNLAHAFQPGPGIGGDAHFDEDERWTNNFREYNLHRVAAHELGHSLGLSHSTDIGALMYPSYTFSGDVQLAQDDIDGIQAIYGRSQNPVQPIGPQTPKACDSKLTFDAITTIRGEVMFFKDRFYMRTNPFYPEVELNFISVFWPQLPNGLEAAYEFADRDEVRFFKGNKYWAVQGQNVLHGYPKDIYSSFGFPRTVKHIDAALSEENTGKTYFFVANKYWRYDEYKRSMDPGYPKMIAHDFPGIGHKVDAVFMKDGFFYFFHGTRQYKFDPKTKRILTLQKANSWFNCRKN

[2] = biological target: T1, Disintegrin and metalloproteinase domain-containing protein 17; assay: Inhibitory activity against Tumor necrosis factor alpha-converting enzyme (TACE) in blood.; assay type: tissue-based

T1 sequence (P78536 whole entry, the tested form may be a part): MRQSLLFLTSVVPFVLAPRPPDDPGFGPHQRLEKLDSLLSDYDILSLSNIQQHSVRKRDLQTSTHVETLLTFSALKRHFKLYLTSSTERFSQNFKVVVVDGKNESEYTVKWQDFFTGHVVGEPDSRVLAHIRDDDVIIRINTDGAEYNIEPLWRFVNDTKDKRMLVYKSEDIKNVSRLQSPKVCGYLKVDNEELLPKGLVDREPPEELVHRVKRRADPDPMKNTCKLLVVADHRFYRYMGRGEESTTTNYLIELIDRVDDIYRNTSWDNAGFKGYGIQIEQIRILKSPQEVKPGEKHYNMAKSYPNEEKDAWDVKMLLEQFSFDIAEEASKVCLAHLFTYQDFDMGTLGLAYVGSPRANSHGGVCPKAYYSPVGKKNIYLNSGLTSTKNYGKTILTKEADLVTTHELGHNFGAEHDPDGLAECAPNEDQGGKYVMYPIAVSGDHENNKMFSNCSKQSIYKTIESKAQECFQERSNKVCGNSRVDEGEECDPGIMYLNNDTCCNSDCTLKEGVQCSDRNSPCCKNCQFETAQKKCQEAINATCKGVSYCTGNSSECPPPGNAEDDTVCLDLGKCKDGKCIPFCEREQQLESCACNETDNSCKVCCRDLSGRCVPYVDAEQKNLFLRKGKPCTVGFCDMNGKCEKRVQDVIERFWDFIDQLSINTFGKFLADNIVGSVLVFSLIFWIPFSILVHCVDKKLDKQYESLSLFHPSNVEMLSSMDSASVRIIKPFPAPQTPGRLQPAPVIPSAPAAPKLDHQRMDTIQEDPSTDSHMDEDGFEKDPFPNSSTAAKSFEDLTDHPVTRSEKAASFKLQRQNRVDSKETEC
Sequence of Neutrophil collagenase (P22894 whole entry): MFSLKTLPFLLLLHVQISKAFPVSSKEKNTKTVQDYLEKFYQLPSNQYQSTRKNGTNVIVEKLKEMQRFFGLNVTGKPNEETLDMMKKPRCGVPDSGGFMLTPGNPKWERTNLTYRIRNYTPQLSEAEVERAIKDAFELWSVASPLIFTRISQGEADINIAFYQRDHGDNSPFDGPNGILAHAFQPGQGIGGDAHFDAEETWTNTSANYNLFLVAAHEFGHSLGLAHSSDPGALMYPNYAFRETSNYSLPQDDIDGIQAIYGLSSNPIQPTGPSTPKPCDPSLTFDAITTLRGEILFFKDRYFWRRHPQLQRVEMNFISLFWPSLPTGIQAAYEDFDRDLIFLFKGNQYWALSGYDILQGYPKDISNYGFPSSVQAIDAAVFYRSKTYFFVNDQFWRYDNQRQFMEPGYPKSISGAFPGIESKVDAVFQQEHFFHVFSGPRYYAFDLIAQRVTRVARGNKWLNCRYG

SMILES | IC50 [1] [nM] | IC50 (Neutrophil collagenase) [nM] | IC50 (Interstitial collagenase) [nM] | IC50 [2] [nM]
CNC(=O)[C@@H](NC(=O)C(CC(C)C)C(C(=O)NO)C1CCCC1)C(C)(C)C (single isomer, unassigned) | 8800 | 20 | 4 | 1
CNC(=O)[C@@H](NC(=O)[C@@H](CC(=O)NO)CC(C)C)C(C)(C)C [RO-319790] | > 50000 |  | 10 | 20
CNC(=O)[C@@H](NC(=O)[C@H](CC(C)C)[C@H](NC(=O)c1cccc2cccnc12)C(=O)NO)C(C)(C)C | 8000 |  | 2.2 | 2
C=CCC(C(=O)NO)C(CC(C)C)C(=O)N[C@@H](Cc1ccccc1)C(=O)NC (single isomer, unassigned) | 2300 | 3 |  | 0.2
CNC(=O)[C@@H](NC(=O)C(CC(C)C)C(C(=O)NO)N(C)S(=O)(=O)c1ccccc1)C(C)(C)C (single isomer, unassigned) | 3000 |  | 1.5 | 0.61
CNC(=O)[C@@H](NC(=O)[C@H](CC(C)C)[C@@H](C(=O)NO)N1CCOCC1)C(C)(C)C | 3000 |  | 2.2 | 3.4
CNC(=O)[C@@H](NC(=O)[C@H](CC(C)C)[C@H](NCc1cccc2cccnc12)C(=O)NO)C(C)(C)C | 34000 | 0.2 | 1.7 | 0.23
CNC(=O)[C@@H](NC(=O)[C@H](CC(C)C)[C@H](NS(=O)(=O)c1ccc2ncnc(O)c2c1)C(=O)NO)C(C)(C)C | 280 | 3.7 | 1.3 | 0.57
CNC(=O)[C@@H](NC(=O)[C@H](CC(C)C)[C@@H](C(=O)NO)N(C)S(=O)(=O)c1cccc2cccnc12)C(C)(C)C | 4500 |  | 2.4 | 4.4
CNC(=O)[C@@H](NC(=O)[C@H](CC(C)C)[C@H](NS(=O)(=O)c1ccc2ncccc2c1)C(=O)NO)C(C)(C)C | 440 |  | 1.2 | 1.6
CNC(=O)[C@@H](NC(=O)[C@H](CC(C)C)[C@H](NS(=O)(=O)c1cccc2cccnc12)C(=O)NO)C(C)(C)C | 8100 |  | 1.1 | 4.2
